A value given as a limit tells only on which side of the number the result lay.

Sequence of hcGAS (Q8N884 whole entry): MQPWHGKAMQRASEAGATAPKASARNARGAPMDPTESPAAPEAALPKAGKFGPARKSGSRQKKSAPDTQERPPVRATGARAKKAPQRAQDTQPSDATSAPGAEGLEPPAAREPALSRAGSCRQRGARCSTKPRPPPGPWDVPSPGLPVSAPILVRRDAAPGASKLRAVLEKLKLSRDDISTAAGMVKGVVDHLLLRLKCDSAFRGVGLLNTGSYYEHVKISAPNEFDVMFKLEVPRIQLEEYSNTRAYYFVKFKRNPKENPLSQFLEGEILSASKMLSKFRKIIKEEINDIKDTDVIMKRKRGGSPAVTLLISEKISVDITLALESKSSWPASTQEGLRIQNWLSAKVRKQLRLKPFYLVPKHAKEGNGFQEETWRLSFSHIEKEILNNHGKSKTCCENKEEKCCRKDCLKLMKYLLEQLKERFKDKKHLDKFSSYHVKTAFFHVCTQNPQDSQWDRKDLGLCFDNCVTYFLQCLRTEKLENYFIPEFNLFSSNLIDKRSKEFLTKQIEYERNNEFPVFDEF

The target of the assay is hcGAS (Homo sapiens, UniProt Q8N884). The assay is described as follows: hcGAS LCMS assay (direct measurement of cGAMP production). Type of assay: biochemical. The note with it: 0.5 nM hcGAS, 100 μM ATP, 100 μM GTP, 25 nM dsDNA, 4 h incubation. On the procedure:
cGAS catalyzes the cyclization of ATP and GTP to produce cGAMP, which is the activating ligand of STING. Human cGAS (hcGAS) inhibition can thus be quantified by measuring how much cGAMP is formed either indirectly, by monitoring ATP-depletion as in the hcGAS Kinase-Glo assay (as described below), or directly, such as using the hcGAS LCMS assay (as described below).
Compounds were tested for their h-cGAS inhibition activity using direct measurement of cGAMP production by LC/MS. Briefly, compounds were incubated with enzyme and substrates for 4 hours (see Table C), before the reaction was stopped with 3 volumes of 70/30 Acetonitrile/H2O mix containing 0.15 mM cGAMP-^13C10^5N5 as internal standard and mixed for […]. After centrifugation (3700 rpm, 10 min, 10° Celsius), […] of each reaction was collected and mixed to equal volume of Acetonitrile. Samples were then analyzed on Qexective (Column: XBridge BEH Amide Column, 130 Å, 3.5 μm, 3 mm×50 mm, Mobile phase A: 10 mM Ammonium acetate in 95/5% H2O/Acetonitrile (0.5% DMSO), Mobile phase B: Acetonitrile (0.5% DMSO).
The results of the assay, expressed as IC50 values, are reported in Table D with the following designations: A represents an IC50 value<0.005 μM; B represents an IC50 value≥0.005 μM and <0.02 μM, C represents an IC50 value≥0.02 μM and <0.06 μM; D represents an IC50 value≥0.06 and <0.2 μM; E represents an IC50 value≥0.2.
In general, IC50 refers to the midpoint of a concentration-inhibition curve. High values mean weaker potency, low ones greater potency. With `COC[C@@H](C)Nc1cc(C(=O)Nc2nnc(-n3nccc3CO)s2)oc(=O)c1OC` [Compound 142, (R)—N-(5-(5-(hydroxymethyl)-1H-pyrazol-1-yl)-1,3,4-thiadiazol-2-yl)-3-methoxy-4-((1-methoxypropan-2-yl)amino)-2-oxo-2H-pyran-6-carboxamide], the half-maximal inhibitory concentration (IC50) lay in the range of 20 to 60 nM.
Compound `COc1c(N(C)[C@@H]2CCC[C@@H]2OC)cc(C(=O)Nc2nnc(-n3nccc3C)s2)oc1=O` (racemic) [Rac-153, 3-methoxy-4-(((cis)-2-methoxycyclopentyl)(methyl)amino)-N-(5-(5-methyl-1H-pyrazol-1-yl)-1,3,4-thiadiazol-2-yl)-2-oxo-2H-pyran-6-carboxamide] yielded an IC50 of 5 to 20 nM.
For `COc1c(N(C)[C@@H]2CCC[C@@H]2O)cc(C(=O)Nc2nnc(-n3nccc3C)s2)oc1=O` (racemic) [Rac-159, 4-(((cis)-2-hydroxycyclopentyl)(methyl)amino)-3-methoxy-N-(5-(5-methyl-1H-pyrazol-1-yl)-1,3,4-thiadiazol-2-yl)-2-oxo-2H-pyran-6-carboxamide], the IC50 was 5 to 20 nM.
The compound `COCCOc1c(N[C@@H]2CCC[C@@H]2O)cc(C(=O)Nc2nnc(-c3c(Cl)ccn3C)s2)oc1=O` [Compound 86, N-(5-(3-chloro-1-methyl-1H-pyrrol-2-yl)-1,3,4-thiadiazol-2-yl)-4-(((1R,2S)-2-hydroxycyclopentyl)amino)-3-(2-methoxyethoxy)-2-oxo-2H-pyran-6-carboxamide] showed an IC50 below 5 nM.
In the case of `COC[C@H]1[C@H](OC)CCN1c1cc(C(=O)Nc2nnc(-n3nccc3C)s2)oc(=O)c1OC` [Compound 211, 3-methoxy-4-((2S,3R)-3-methoxy-2-(methoxymethyl)pyrrolidin-1-yl)-N-(5-(5-methyl-1H-pyrazol-1-yl)-1,3,4-thiadiazol-2-yl)-2-oxo-2H-pyran-6-carboxamide] it was 5 to 20 nM.
Then `COc1c(N[C@H]2CCC[C@H]2OCC(F)F)cc(C(=O)Nc2nnc(-n3nccc3C)s2)oc1=O` [Compound 206, 4-(((1S,2R)-2-(2,2-difluoroethoxy)cyclopentyl)amino)-3-methoxy-N-(5-(5-methyl-1H-pyrazol-1-yl)-1,3,4-thiadiazol-2-yl)-2-oxo-2H-pyran-6-carboxamide], with 5 to 20 nM; and `COc1c(N2CCC[C@H]2CC#N)cc(C(=O)Nc2nnc(-n3nccc3C)s2)oc1=O` [Compound 175, (S)-4-(2-(cyanomethyl)pyrrolidin-1-yl)-3-methoxy-N-(5-(5-methyl-1H-pyrazol-1-yl)-1,3,4-thiadiazol-2-yl)-2-oxo-2H-pyran-6-carboxamide], with 5 to 20 nM; and `COc1c(N2CC[C@@H](OC)C2=O)cc(C(=O)Nc2nnc(-n3nccc3C)s2)oc1=O` [Compound 150, (R)-3-methoxy-4-(3-methoxy-2-oxopyrrolidin-1-yl)-N-(5-(5-methyl-1H-pyrazol-1-yl)-1,3,4-thiadiazol-2-yl)-2-oxo-2H-pyran-6-carboxamide], with 5 to 20 nM.
In the case of `COCCNc1cc(C(=O)Nc2nnc(-c3ccsc3Cl)s2)oc(=O)c1OC` [Compound 135, N-(5-(2-chlorothiophen-3-yl)-1,3,4-thiadiazol-2-yl)-3-methoxy-4-((2-methoxyethyl)amino)-2-oxo-2H-pyran-6-carboxamide] it was 20 to 60 nM.
The compound `COc1c(N[C@H]2CC[C@H]2OCC(F)F)cc(C(=O)Nc2nnc(-n3nccc3C)s2)oc1=O` (single isomer, unassigned) [172*] yielded an IC50 of 5 to 20 nM.
The compound `COc1c(N[C@@H]2CCCCC[C@@H]2O)cc(C(=O)Nc2nnc(-n3nccc3C)s2)oc1=O` (racemic) [Rac-26, 4-(((cis)-2-hydroxycycloheptyl)amino)-3-methoxy-N-(5-(5-methyl-1H-pyrazol-1-yl)-1,3,4-thiadiazol-2-yl)-2-oxo-2H-pyran-6-carboxamide] displayed an IC50 below 5 nM.
With `COc1c(N[C@@H]2CCC[C@@H]2C#N)cc(C(=O)Nc2nnc(-n3nccc3C)s2)oc1=O` (single isomer, unassigned) [Compound 73], the IC50 was below 5 nM.
With `COc1c(NCCO[C@@H]2CCOC2)cc(C(=O)Nc2nnc(-n3nccc3C)s2)oc1=O` [Compound 169, 5-methoxy-N-[5-(5-methylpyrazol-1-yl)-1,3,4-thiadiazol-2-yl]-6-oxo-4-({2-[(3R)-oxolan-3-yloxy]ethyl}amino)pyran-2-carboxamide], the IC50 was at least 200 nM.
Turning to `COC[C@H](Nc1cc(C(=O)Nc2nnc(-n3nccc3C)s2)oc(=O)c1OC)C1CC1` (single isomer, unassigned) [Compound 21*], the IC50 was in the range of 5 to 20 nM.
In the case of `COc1c(NC2COC(C)(C)OC2)cc(C(=O)Nc2nnc(-n3nccc3C)s2)oc1=O` [Compound 195, 4-((2,2-dimethyl-1,3-dioxan-5-yl)amino)-3-methoxy-N-(5-(5-methyl-1H-pyrazol-1-yl)-1,3,4-thiadiazol-2-yl)-2-oxo-2H-pyran-6-carboxamide] it was 5 to 20 nM; in that of `COc1c(N[C@@H]2CCC[C@@H]2O)cc(C(=O)Nc2nnc(-c3c(Cl)ccn3C)s2)oc1=O` [Compound 197, N-(5-(3-chloro-1-methyl-1H-pyrrol-2-yl)-1,3,4-thiadiazol-2-yl)-4-(((1R,2S)-2-hydroxycyclopentyl)amino)-3-methoxy-2-oxo-2H-pyran-6-carboxamide], 5 to 20 nM.
The compound `COc1c(N(CCO)CCO)cc(C(=O)Nc2nnc(-n3nccc3C)s2)oc1=O` (single isomer, unassigned) [Compound 158, 4-(bis(2-hydroxyethyl)amino)-3-methoxy-N-(5-(5-methyl-1H-pyrazol-1-yl)-1,3,4-thiadiazol-2-yl)-2-oxo-2H-pyran-6-carboxamide] showed an IC50 of 60 to 200 nM.
Then `COC[C@@H](C)Nc1cc(C(=O)Nc2nnc(-c3sccc3Cl)s2)oc(=O)c1OC` [Compound 94, (R)—N-(5-(3-chlorothiophen-2-yl)-1,3,4-thiadiazol-2-yl)-3-methoxy-4-((1-methoxypropan-2-yl)amino)-2-oxo-2H-pyran-6-carboxamide], with 5 to 20 nM; and `COC[C@@H](Nc1cc(C(=O)Nc2nnc(-n3nccc3C)s2)oc(=O)c1OC)c1ccccc1OC` (single isomer, unassigned) [199*], with below 5 nM; and `COc1c(NCCOC(F)F)cc(C(=O)Nc2nnc(-n3nccc3C)s2)oc1=O` [Compound 208, 4-((2-(difluoromethoxy)ethyl)amino)-3-methoxy-N-(5-(5-methyl-1H-pyrazol-1-yl)-1,3,4-thiadiazol-2-yl)-2-oxo-2H-pyran-6-carboxamide], with 5 to 20 nM.
`COc1c(NCCOCC(F)F)cc(C(=O)Nc2nnc(-n3nccc3C)s2)oc1=O` [Compound 17, 4-((2-(2,2-difluoroethoxy)ethyl)amino)-3-methoxy-N-(5-(5-methyl-1H-pyrazol-1-yl)-1,3,4-thiadiazol-2-yl)-2-oxo-2H-pyran-6-carboxamide] had an IC50 of 20 to 60 nM.
Take `COc1c(N[C@@H]2CC[C@H](OC)C2)cc(C(=O)Nc2nnc(-n3nccc3C)s2)oc1=O` (single isomer, unassigned) [125*]: the IC50 is 5 to 20 nM.
`COC[C@@H](Cc1ccccc1)Nc1cc(C(=O)Nc2nnc(-n3nccc3C)s2)oc(=O)c1OC` [Compound 170, (R)-3-methoxy-4-((1-methoxy-3-phenylpropan-2-yl)amino)-N-(5-(5-methyl-1H-pyrazol-1-yl)-1,3,4-thiadiazol-2-yl)-2-oxo-2H-pyran-6-carboxamide]: the IC50 fell in the range of 5 to 20 nM.

These data come from patent US20240270740A1, “INHIBITORS OF CYCLIC GMP-AMP SYNTHASE AND USES THEREOF” (Ventus Therapeutics U.S., Inc., priority 2022, published 2024).
